Experimental data: ChEMBL document CHEMBL1201862, “PubChem BioAssay data set” (2004)
Each block holds one molecule with its values, some of them ahead of it. Calls of active or inactive are those of the source.

Key:
[1] = target: T1, Polyadenylate-binding protein 1 (Homo sapiens, UniProt P11940); experiment: MLLE binding blockers, Cy5 peptide tracer – biochemical, fluorescence polarization, Cy5-PAM2 peptide, secondary, miRNA deadenylation inhibitor project, dose response (AID 602260); type: functional; conditions: read-out: IC50_Mean
[2] = target: T1, Polyadenylate-binding protein 1; experiment: MLLE domain peptide-binding blockers, IC50 – biochemical, fluorescence polarization, FITC-PAM2 peptide, dose response (AID 602259); type: functional; conditions: read-out: IC50_Mean
[3] = intracellular Trypanosoma cruzi inhibitors in host cells – cell-based, plate reader, cherry-pick samples, set 3, dose response (AID 651818); type: functional;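 also: compounds incubated with infected cells for about four days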
P388/ADR = experiment: cells; type: functional; conditions: Mus musculus
SN12K1 = experiment: cells; type: functional; conditions: Homo sapiens
P388 = experiment: cells; type: functional; conditions: Mus musculus
[4] = target: FAD-linked sulfhydryl oxidase ALR (Homo sapiens, UniProt P55789); experiment: ALR-catalysed DTT oxidation blockers – biochemical, H2O2 detection, luminescence, cherry-pick, dose response (AID 493248)
[5] = target: T2, Rac GTPase-activating protein 1 (Homo sapiens, UniProt Q9H0H5); experiment: blockers of MgcRacGAP-driven Rac1 GTP hydrolysis – biochemical, ADP Hunter fluorescence, primary and confirmatory, confirmation (AID 624330); type: functional
T2 sequence (Q9H0H5 whole entry): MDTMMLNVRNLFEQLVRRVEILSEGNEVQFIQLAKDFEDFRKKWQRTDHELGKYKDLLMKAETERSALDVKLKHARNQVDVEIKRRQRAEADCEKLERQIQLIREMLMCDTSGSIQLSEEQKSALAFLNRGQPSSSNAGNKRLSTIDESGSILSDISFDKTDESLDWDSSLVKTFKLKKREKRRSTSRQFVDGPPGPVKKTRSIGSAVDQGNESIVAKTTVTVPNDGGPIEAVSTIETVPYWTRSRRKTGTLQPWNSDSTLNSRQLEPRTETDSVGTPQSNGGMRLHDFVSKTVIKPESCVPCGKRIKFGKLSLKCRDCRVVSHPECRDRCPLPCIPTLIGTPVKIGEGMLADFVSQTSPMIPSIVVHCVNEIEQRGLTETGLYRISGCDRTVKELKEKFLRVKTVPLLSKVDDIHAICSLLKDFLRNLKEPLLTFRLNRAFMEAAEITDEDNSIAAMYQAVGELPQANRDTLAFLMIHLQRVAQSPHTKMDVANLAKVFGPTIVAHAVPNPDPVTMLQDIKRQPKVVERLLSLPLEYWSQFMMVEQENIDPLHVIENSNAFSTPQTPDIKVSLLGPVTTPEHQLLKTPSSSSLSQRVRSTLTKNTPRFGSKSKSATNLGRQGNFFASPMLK

[6] = target: T3, Corticotropin-releasing factor receptor 2/Corticotropin-releasing factor-binding protein (Homo sapiens, UniProt P24387+Q13324); experiment: Dose Response confirmation of uHTS hits for small molecule antagonists of the CRF-binding protein and CRF-R2 receptor complex.; type: functional; conditions: read-out: IC50_Mean
T3 sequence (Q13324 whole entry): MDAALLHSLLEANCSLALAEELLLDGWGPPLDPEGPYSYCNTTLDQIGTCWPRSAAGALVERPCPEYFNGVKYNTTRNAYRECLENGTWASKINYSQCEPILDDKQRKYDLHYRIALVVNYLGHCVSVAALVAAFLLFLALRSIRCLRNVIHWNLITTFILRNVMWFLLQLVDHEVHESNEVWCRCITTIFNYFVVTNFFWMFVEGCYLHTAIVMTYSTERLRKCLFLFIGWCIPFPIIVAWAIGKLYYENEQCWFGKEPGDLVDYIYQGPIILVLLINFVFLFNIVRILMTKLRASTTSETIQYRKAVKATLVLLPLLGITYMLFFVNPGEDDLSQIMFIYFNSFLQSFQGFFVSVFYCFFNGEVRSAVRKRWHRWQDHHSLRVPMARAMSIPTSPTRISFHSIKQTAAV
T3 sequence (P24387 whole entry): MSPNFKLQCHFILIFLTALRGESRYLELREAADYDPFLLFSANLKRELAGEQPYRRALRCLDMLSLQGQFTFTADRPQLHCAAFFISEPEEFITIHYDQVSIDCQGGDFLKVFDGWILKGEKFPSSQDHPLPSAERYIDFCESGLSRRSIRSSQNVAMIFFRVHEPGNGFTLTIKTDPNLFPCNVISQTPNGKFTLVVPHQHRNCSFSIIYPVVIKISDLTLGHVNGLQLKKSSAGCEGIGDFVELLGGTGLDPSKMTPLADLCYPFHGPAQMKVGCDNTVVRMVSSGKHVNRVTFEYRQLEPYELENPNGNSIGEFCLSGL

[7] = target: T3, Corticotropin-releasing factor receptor 2/Corticotropin-releasing factor-binding protein; experiment: activators of CRF receptor 2 with binding protein – uHTS hits, confirmation (AID 602473); type: functional; conditions: read-out: EC50_Mean
[8] = target: T4, Calpain-2 catalytic subunit (Sus scrofa, UniProt P43367); experiment: m-calpain protease blockers, concentration series – biochemical, fluorogenic peptide substrate, dose response (AID 1420); type: functional
T4 sequence (P43367 whole entry): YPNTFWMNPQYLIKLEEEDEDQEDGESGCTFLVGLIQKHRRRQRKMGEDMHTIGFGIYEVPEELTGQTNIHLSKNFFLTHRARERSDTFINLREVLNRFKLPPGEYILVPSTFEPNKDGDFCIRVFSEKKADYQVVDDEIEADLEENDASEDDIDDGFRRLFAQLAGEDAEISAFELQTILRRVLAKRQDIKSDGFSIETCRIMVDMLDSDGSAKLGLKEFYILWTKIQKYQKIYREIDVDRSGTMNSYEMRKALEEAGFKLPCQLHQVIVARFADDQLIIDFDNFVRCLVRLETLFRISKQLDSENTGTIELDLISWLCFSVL

[9] = target: T5, High affinity choline transporter 1 (Homo sapiens, UniProt Q9GZV3); experiment: human choline transporter blockers, potency – cell-based, 5-point CRC, membrane potential dye, dose response (AID 504840); type: functional
T5 sequence (Q9GZV3 whole entry): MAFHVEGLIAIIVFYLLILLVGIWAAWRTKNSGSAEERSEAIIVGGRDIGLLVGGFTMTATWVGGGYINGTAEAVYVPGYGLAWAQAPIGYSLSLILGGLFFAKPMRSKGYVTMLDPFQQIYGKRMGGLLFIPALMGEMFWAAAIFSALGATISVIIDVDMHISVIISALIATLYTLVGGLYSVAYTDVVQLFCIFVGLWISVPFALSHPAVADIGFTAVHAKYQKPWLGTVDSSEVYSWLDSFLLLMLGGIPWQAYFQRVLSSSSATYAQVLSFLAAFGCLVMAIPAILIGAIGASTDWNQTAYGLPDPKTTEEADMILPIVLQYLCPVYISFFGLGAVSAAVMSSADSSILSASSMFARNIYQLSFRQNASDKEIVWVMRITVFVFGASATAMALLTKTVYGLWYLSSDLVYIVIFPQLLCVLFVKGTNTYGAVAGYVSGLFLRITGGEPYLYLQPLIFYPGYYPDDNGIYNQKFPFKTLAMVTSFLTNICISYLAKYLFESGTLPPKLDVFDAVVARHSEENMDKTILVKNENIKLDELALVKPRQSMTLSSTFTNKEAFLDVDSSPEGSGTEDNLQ

Chain of FAD-linked sulfhydryl oxidase ALR (P55789 whole entry): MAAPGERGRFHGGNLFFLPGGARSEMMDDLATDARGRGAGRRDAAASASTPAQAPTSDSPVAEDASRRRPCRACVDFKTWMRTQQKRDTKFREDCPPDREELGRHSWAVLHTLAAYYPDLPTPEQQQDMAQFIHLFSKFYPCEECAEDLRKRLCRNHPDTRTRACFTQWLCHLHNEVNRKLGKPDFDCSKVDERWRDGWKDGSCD
T1 sequence (P11940 whole entry, the tested form may be a part): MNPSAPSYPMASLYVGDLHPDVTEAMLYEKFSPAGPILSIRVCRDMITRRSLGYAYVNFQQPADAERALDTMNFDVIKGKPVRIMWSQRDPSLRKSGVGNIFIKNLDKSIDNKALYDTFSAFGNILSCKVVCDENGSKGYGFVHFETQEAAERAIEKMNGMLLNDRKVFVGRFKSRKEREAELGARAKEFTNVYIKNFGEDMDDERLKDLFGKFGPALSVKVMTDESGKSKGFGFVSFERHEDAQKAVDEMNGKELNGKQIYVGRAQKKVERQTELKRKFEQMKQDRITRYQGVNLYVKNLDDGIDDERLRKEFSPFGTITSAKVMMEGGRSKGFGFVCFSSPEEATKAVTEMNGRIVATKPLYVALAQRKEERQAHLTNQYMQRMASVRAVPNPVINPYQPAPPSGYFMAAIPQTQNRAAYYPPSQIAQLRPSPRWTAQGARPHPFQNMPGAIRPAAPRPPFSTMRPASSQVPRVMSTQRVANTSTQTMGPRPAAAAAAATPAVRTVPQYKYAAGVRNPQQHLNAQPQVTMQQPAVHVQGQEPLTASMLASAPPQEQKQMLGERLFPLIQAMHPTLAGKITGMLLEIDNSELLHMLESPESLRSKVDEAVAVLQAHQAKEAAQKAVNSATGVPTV

Structure (SMILES): C[C@H](CO)N1C[C@H](C)[C@H](CN(C)S(=O)(=O)c2ccc(F)cc2)Oc2ccc(NC(=O)Nc3ccc(C(F)(F)F)cc3)cc2CC1=O
AC50 [3]: 2.56 µM (active)

Structure (SMILES): O=C1C(Br)=CC2([N+](=O)[O-])CCNC3=C(C4=NCCc5c[nH]c(c54)C3=O)C2=C1Br (stereo not given)
GI50 (P388/ADR): 0.579 µM (active)
GI50 (SN12K1): 3.3 µM (inactive)
GI50 (P388): 0.317 µM (active)

Structure (SMILES): c1ccc2c3c(ccc2c1)-c1[nH]ncc1CCO3
GI50 (P388/ADR): 26.9 µM (inactive)
GI50 (SN12K1): 22.4 µM (inactive)
GI50 (P388): 26.1 µM (inactive)

Structure (SMILES): Cc1noc(C)c1S(=O)(=O)Nc1cccc2c1O[C@H](CN(C)Cc1ccc(C(=O)Nc3ccccc3N)cc1)[C@H](C)CN([C@@H](C)CO)C2=O
AC50 [3]: 2.03 µM (active)

Structure (SMILES): C[C@@H]1CN([C@@H](C)CO)C(=O)c2cccc(NC(=O)CCCCCC(=O)Nc3ccccc3N)c2O[C@H]1CN(C)Cc1ccccc1
AC50 [3]: 2.43 µM (active)

Structure (SMILES): C[C@H](CO)N1C[C@H](C)[C@@H](CN(C)Cc2ccc(C(=O)Nc3ccccc3N)cc2)Oc2c(NS(=O)(=O)c3ccccc3)cccc2C1=O
AC50 [3]: 4.71 µM (active)

Structure (SMILES): Cc1c2cnccc2c(C)c2c1c1ccccc1n2CC1CO1 (stereo not given)
GI50 (P388/ADR): 0.065 µM (active)
GI50 (SN12K1): 0.719 µM (active)
GI50 (P388): 0.0291 µM (active)

Results, then the molecule that gave them:

IC50 [1]: > 66 µM (inactive)
IC50 [2]: > 66 µM (inactive)
Structure (SMILES): CC1CCN(C(=S)c2ccc([N+](=O)[O-])cc2)CC1

AC50 [4]: 2.3 µM (active)
IC50 [5]: 47.9 µM (active)
Structure (SMILES): COc1cc(/C=N/n2c(S)nnc2C2CCCCC2)ccc1O

IC50 [1]: > 66 µM (inactive)
IC50 [6]: > 47.1 µM (inactive)
IC50 [2]: > 66 µM (inactive)
EC50 [7]: > 53 µM (inactive)
Structure (SMILES): Cc1cccc(C)c1NC(=S)Nc1ccc(F)cc1

AC50 [4]: 4.38 µM (active)
Structure (SMILES): Cc1cc(N2CCN(c3ccccc3)CC2)nc(N)n1

IC50 [8]: 36.7 µM (not active)
IC50 [1]: > 66 µM (inactive)
IC50 [2]: > 66 µM (inactive)
Structure (SMILES): CCCN(CCC)C(=S)NC(=O)c1ccc(-c2ccccc2)cc1

AC50 [4]: 6.86 µM (active)
IC50 [9]: 0.794 µM (active)
Structure (SMILES): Cc1ccc(S(=O)(=O)N2[C@@H](c3ccc(Cl)cc3)C(C(=O)O)=CC[C@H]2c2ccc(Cl)c(Cl)c2)cc1

IC50 [1]: > 66 µM (inactive)
IC50 [2]: 52.6 µM (inactive)
Structure (SMILES): COC(=O)c1ccc2c(=O)sc(N3CCC(C(N)=O)CC3)nc2c1

AC50 [4]: 0.58 µM (active)
Structure (SMILES): CC(=O)NNc1nc(-c2ccc(NC(C)=O)cc2)cs1
